Measured values reported in patent US6197774A, “Pyrimidine derivative” (Otsuka Pharmaceutical Co., Ltd., priority 1997, dated 2001).

Legend:
[1] = MTT assay, index of toxicity for A 549 cells; format: cell-based; conditions: human, a549 cells, control 100.0, read-out: Ratio of optical absorbance
Procedure: (§1) Test was conducted in accordance with the method as described in J. Immunol. Methods, Vol. 94, pp. 57-68, (1986). Cell strain RAW 264.7 derived from the macrophage of mouse was incubated similarly as in the method of Test Example 1(1). After that, MTT reagent (5 mg/ml) in 1/10 amount of the culture medium was added to the cells, and incubated for 4 hours. The supernatant of culture medium was taken off, then the cells were collected by using 1% SDS solution and the optical absorbance at 570-630 nm of the SDS solution was measured.
(§2) Cell strain A 549 (ATCC) derived from human alveolar epithelium cells was placed on each one of the wells on a microplate having 24-wells so as to put the cells in an amount of 3×10^5 cells/U (well). The cells were incubated for 24 hours in F-12 Nutrient Mixture culture medium (mfd. by GIBCO) to which 10% of equine serum, 100 U/ml of penicillin (mfd. by Dainippon Pharmaceutical Co., Ltd.) and 100 μg/ml of streptomycin (mfd. by Dainippon Pharmaceutical Co., Ltd.) were added.
(§3) On the other hand, the test culture medium, containing the test compound of Example 1 was prepared similarly as in the reference culture medium, except adding the test compound (1×10^-5, 1×10^-6 and 1×10^-7 M) dissolved in dimethyl sulfoxide (DMSO) at the same time of inducers-addition.
(§4) The concentration of IL-8 formed in the supernatant of each one of the culture media after 24-hour incubation was measured by IL-8 ELISA Kit Human (mfd. by genzyme). Further, MTT assay was conducted by the similar method as described in Text Example 2 to determine the index of toxicity for cells.

contact hypersensitivity = assay: Contact hypersensitivity model in mouse (atopic dermatitis model); format: in vivo; conditions: po, 2 mg/Kg p.o., 30 minutes before causal induction, 24 hours, read-out: Control % (intumescence of the pinna, untreated = 100)
Procedure: [Contact hypersensitivity model in mouse (Atopic dermatisis model)]
Test was conducted by referring to the method as described in "HIFU (a Japanese journal of dermatology)" Vol. 35, Supplemental Issue No. 15, pp. 96-106, published on March 1993.
CBA/J strain mice of 6-8 week age were used as the test animals (6-8 mice in one group). The mouse was sensitized by coating 150 μl of 5% of picryl chloride [dissolved in a mixture of acetone with olive oil (1:4)] on the shaved portion of skin in the back of mouse. […] 24 Hours after the causal induction, the effect for inhibiting contact hypersensitivity performed by the test compounds were evaluated by referring to the action for inhibiting intumescence of the pinna as an indication. The test compound was orally administered 30 minutes before the causal induction.
The following compounds were used for the test.
1) Compounds of the Present Invention:
(Dosage: 20 mg/Kg p.o., which is 7-10 times larger amount of dosages for compounds of the present invention)
The value obtained from the sensitization test without administration of the test compound was referred to as 100, and by comparing with the values obtained from the sensitization test with administration of the test compound was referred to "% control" values.

[2] = Toxicity of compound against the cell strain RAW 264.7 (MTT); format: cell-based; conditions: mouse, raw 264.7 cells, 1 × 10^-6 M, read-out: Ratio of optical absorbance
Procedure: [Toxicity test (Toxicity of compound against the cell strain RAW 264.7)]
as §1

[3] = test system: formation of IL-8 in cell strain A 549; assay: Activity for inhibiting the formation of IL-8 in vitro (A 549 cells, ELISA); format: cell-based; conditions: Homo sapiens, A549, control 100.0, 24 hours, read-out: Ratio of formed amount of IL-8
Procedure: [Evaluation test of activity for inhibiting the formation of IL-8 in vitro]
Pyrimidine derivative obtained in Example 1 was used as test comppound.
as §2
Next, the equine serum was removed from the culture medium, and the reference culture medium as control was prepared by adding inducers of TNF-α (mfd. by genzyme), IL-1β (mfd. by genzyme) and IFN-γ (mfd. by genzyme) to the culture medium, so as to induce the formation of IL-8.
as §3, §4

late asthmatic response = assay: Model experiment of asthma in guinea pigs (inhibition of late asthmatic response); format: in vivo, guinea pig; conditions: 10 mg/Kg orally 30 minutes before antigen; 6 animals; control 112 ± 17.8
Procedure: [Model experiment of asthma in guinea pigs. (Inhibition of late asthmatic response)]
Hartley strain female guinea pigs (SLC) having the body weight of about 350 g were used and 50 mg/Kg of cyclophosphamide (mfd. by Sigma Chemical Co.) was injected intraperitoneally. 2 Days after this pretreatment by injection, 1 mg of egg albumin (mfd. by Sigma Chemical Co.) and 100 mg of aluminum hydroxide (Wako Pure Chemical Industries Co., Ltd.) were injected intraperitoneally for sensitization. 3 Weeks after the sensitization, 10 μg of egg albumin and 100 mg of aluminum hydroxide were injected intraperitoneally for booster sensitization. 6 Weeks after the primary sensitization, asthma attach was induced by inhalation and exposure to egg albumin (4 mg/ml) by using a nebulizer (NE-U12: mfd. by Omron Corp.). The asthma reaction was determined by use of a body-plethysmography (using system developed by Uchida lecturer in internal department for respiratory organs at Tsukuba University; air-resist tube, respiratory amplifier and differential pressure transducer (mfd. by Nihon Koden); and osciloscope (mfd. by Iwasaki Tsushin)), so as to determine a […] of specific airway conductance (sGaw) under the condition without anesthesia. The sGaw value just before the administration of test comopound was measured and the value is referred to as 100. Test compound was suspended in 1% HPMC (hydroxymethylpropylcellulose mfd. by Shinetsu Chemical), and was administered orally 30 minutes before the exposure with the antigen. Then, sGaw value was measured in each points until 7 hours after the exposure with the antigen.

Compound `COCc1cc(=O)n2ncc(-c3ccc(Sc4ccccc4)cc3)c2[nH]1` [Example 1, 4,7-dihydro-5-methoxymethyl-7-oxo-3-(4-phenylthiophenyl)pyrazolo[1,5-a]pyrimidine] has a viability at 24 h, 10 µM ([1]; 1 × 10^-5 M) of 126%, a viability at 24 h, 1 µM ([1]; 1 × 10^-6 M) of 98.1% and a viability at 24 h, 0.1 µM ([1]; 1 × 10^-7 M) of 108%. It also gave a response vs control in vivo at 2 mg/kg (contact hypersensitivity) of 53.7%, a viability at 1 µM [2] of 109% and an activity at 10 µM ([3]; 1 × 10^-5 M) of 13.4%. For the same compound, the activity at 1 µM ([3]; 1 × 10^-6 M) was 52.6%, the activity at 0.1 µM ([3]; 1 × 10^-7 M) was 64.5% and the “AUC (4-7 hours) of sGaw reaction” value (late asthmatic response) was 32.8 ± 9.2.
